Laboratory results taken from ChEMBL document CHEMBL5584333, “Evo312: An Evodiamine Analog and Novel PKCβI Inhibitor with Potent Antitumor Activity in Gemcitabine-Resistant Pancreatic Cancer” (J Med Chem, 2024).
Activity calls are given as the source filed them. The calls are words filed in the database; no cut-off is given here.

Test system: PANC-1
Assay: Cytotoxicity against human PANC-1 cells assessed as inhibition of cell growth incubated for 72 hrs by SRB assay
Type: functional, cell-based
Conditions: PANC-1, 72 h
For `CN1c2ccc(Br)cc2C(=O)N2CCc3c([nH]c4ccccc34)[C@H]21`, the IC50 was 2.25 µM.
For `COc1ccc2c(c1)N(C)[C@@H]1c3[nH]c4ccccc4c3CCN1C2=O`, the IC50 was 31.6 µM.
Work on `Cn1cc(C2=C(c3cn(C4CCN(Cc5ccccn5)CC4)c4ccccc34)C(=O)NC2=O)c2ccccc21` [ENZASTAURIN] yielded an IC50 of 6.59 µM.
With `O=C1c2ccccc2N(Cc2ccccc2)[C@@H]2c3[nH]c4ccccc4c3CCN12` the IC50 was over 50 µM.
`CC(=O)Oc1ccc2[nH]c3c(c2c1)CCN1C(=O)c2cccc(C)c2N(C)[C@H]31` gave an IC50 of under 0.4 µM.
Molecule `CN1c2ccc(F)cc2C(=O)N2CCc3c([nH]c4ccccc34)[C@H]21` has an IC50 of under 0.4 µM.
`C=CCOc1ccc2[nH]c3c(c2c1)CCN1C(=O)c2ccccc2N(C)[C@H]31` showed an IC50 of 6.7 µM.
In the case of `Cc1ccc(Cn2c3c(c4ccccc42)CCN2C(=O)c4ccccc4N(C)[C@H]32)cc1`, the IC50 is reported as over 50 µM.
In the case of `Cc1cccc2c1N(C)[C@@H]1c3[nH]c4ccccc4c3CCN1C2=O`, the IC50 is reported as under 0.4 µM.
`CN1c2ccccc2C(=O)N2CCc3c([nH]c4ccc(OC(=O)c5ccccc5)cc34)[C@H]21` gave an IC50 of 0.75 µM.
For `CC(=O)Oc1ccc2[nH]c3c(c2c1)CCN1C(=O)c2cc(F)ccc2N(C)[C@H]31`, the IC50 was under 0.4 µM.
For `CN1c2ccccc2C(=O)N2CCc3c([nH]c4ccc(O)cc34)[C@H]21`, the IC50 was at most 0.05 µM.
Work on `Nc1ccn([C@@H]2O[C@H](CO)[C@@H](O)C2(F)F)c(=O)n1` [GEMCITABINE] yielded an IC50 of 1.25 µM.
With `O=C1c2ccccc2N(C(=O)C2CCCCC2)C2c3[nH]c4ccccc4c3CCN12` (single isomer, unassigned) the IC50 was over 50 µM.
With `COc1ccc(Cn2c3c(c4ccccc42)CCN2C(=O)c4ccccc4N(C)[C@H]32)cc1` the IC50 was 47.2 µM.
With `CN1c2ccccc2C(=O)N2CCc3c([nH]c4c([N+](=O)[O-])cc([N+](=O)[O-])cc34)[C@H]21` the IC50 was 0.93 µM.
`CCCOc1ccc2[nH]c3c(c2c1)CCN1C(=O)c2ccccc2N(C)[C@H]31` showed an IC50 of 19 µM.
Work on `CN1c2cccc(Cl)c2C(=O)N2CCc3c([nH]c4ccccc34)[C@H]21` yielded an IC50 of 8.8 µM.
Molecule `CCCN1c2ccccc2C(=O)N2CCc3c([nH]c4ccccc34)[C@H]21` has an IC50 of under 0.4 µM.
In the case of `CN1c2ccccc2C(=O)N2CCc3c([nH]c4ccccc34)[C@H]21`, the IC50 is reported as 6.59 µM.
For `CN1c2ccccc2C(=O)N2CCc3c(n(Cc4ccccc4)c4ccccc34)[C@H]21`, the IC50 was 6.88 µM.

Test system: not listed separately
Assay: Cytotoxicity against human MRC5 cells assessed as inhibition of cell growth incubated for 72 hrs by SRB assay
Type: toxicity, cell-based
Conditions: not given
`CN1c2ccc(Br)cc2C(=O)N2CCc3c([nH]c4ccccc34)[C@H]21` showed an IC50 at 72 h of 3.06 µM.
Work on `COc1ccc2c(c1)N(C)[C@@H]1c3[nH]c4ccccc4c3CCN1C2=O` yielded an IC50 at 72 h of 3.6 µM.
In the case of `O=C1c2ccccc2N(Cc2ccccc2)[C@@H]2c3[nH]c4ccccc4c3CCN12`, the IC50 at 72 h is reported as over 50 µM.
In the case of `CC(=O)Oc1ccc2[nH]c3c(c2c1)CCN1C(=O)c2cccc(C)c2N(C)[C@H]31`, the IC50 at 72 h is reported as under 0.4 µM.
`CN1c2ccc(F)cc2C(=O)N2CCc3c([nH]c4ccccc34)[C@H]21` gave an IC50 at 72 h of under 0.4 µM.
`C=CCOc1ccc2[nH]c3c(c2c1)CCN1C(=O)c2ccccc2N(C)[C@H]31` showed an IC50 at 72 h of over 50 µM.
`Cc1ccc(Cn2c3c(c4ccccc42)CCN2C(=O)c4ccccc4N(C)[C@H]32)cc1` gave an IC50 at 72 h of over 50 µM.
`Cc1cccc2c1N(C)[C@@H]1c3[nH]c4ccccc4c3CCN1C2=O` showed an IC50 at 72 h of under 0.4 µM.
With `CN1c2ccccc2C(=O)N2CCc3c([nH]c4ccc(OC(=O)c5ccccc5)cc34)[C@H]21` the IC50 at 72 h was over 50 µM.
`CC(=O)Oc1ccc2[nH]c3c(c2c1)CCN1C(=O)c2cc(F)ccc2N(C)[C@H]31` showed an IC50 at 72 h of under 0.4 µM.
Work on `CN1c2ccccc2C(=O)N2CCc3c([nH]c4ccc(O)cc34)[C@H]21` yielded an IC50 at 72 h of over 50 µM.
Work on `O=C1c2ccccc2N(C(=O)C2CCCCC2)C2c3[nH]c4ccccc4c3CCN12` (single isomer, unassigned) yielded an IC50 at 72 h of over 50 µM.
With `COc1ccc(Cn2c3c(c4ccccc42)CCN2C(=O)c4ccccc4N(C)[C@H]32)cc1` the IC50 at 72 h was over 50 µM.
In the case of `CN1c2ccccc2C(=O)N2CCc3c([nH]c4c([N+](=O)[O-])cc([N+](=O)[O-])cc34)[C@H]21`, the IC50 at 72 h is reported as over 50 µM.
For `CCCOc1ccc2[nH]c3c(c2c1)CCN1C(=O)c2ccccc2N(C)[C@H]31`, the IC50 at 72 h was over 50 µM.
`CN1c2cccc(Cl)c2C(=O)N2CCc3c([nH]c4ccccc34)[C@H]21` gave an IC50 at 72 h of under 0.4 µM.
Molecule `CCCN1c2ccccc2C(=O)N2CCc3c([nH]c4ccccc34)[C@H]21` has an IC50 at 72 h of under 0.4 µM.
Molecule `CN1c2ccccc2C(=O)N2CCc3c([nH]c4ccccc34)[C@H]21` has an IC50 at 72 h of over 50 µM.
In the case of `CN1c2ccccc2C(=O)N2CCc3c(n(Cc4ccccc4)c4ccccc34)[C@H]21`, the IC50 at 72 h is reported as 33.7 µM.

Test system: not listed separately
Assay: Cytotoxicity against HPDE6c7 cells assessed as inhibition of cell growth incubated for 72 hrs by SRB assay
Type: toxicity, cell-based
Conditions: human
For `Cn1cc(C2=C(c3cn(C4CCN(Cc5ccccn5)CC4)c4ccccc34)C(=O)NC2=O)c2ccccc21` [ENZASTAURIN], the IC50 at 72 h was 1.33 µM.
Molecule `CN1c2ccccc2C(=O)N2CCc3c([nH]c4ccc(OC(=O)c5ccccc5)cc34)[C@H]21` has an IC50 at 72 h of 0.14 µM.
Molecule `CN1c2ccccc2C(=O)N2CCc3c([nH]c4ccc(O)cc34)[C@H]21` has an IC50 at 72 h of 0.17 µM.
In the case of `Nc1ccn([C@@H]2O[C@H](CO)[C@@H](O)C2(F)F)c(=O)n1` [GEMCITABINE], the IC50 at 72 h is reported as 0.04 µM.
With `CN1c2ccccc2C(=O)N2CCc3c([nH]c4c([N+](=O)[O-])cc([N+](=O)[O-])cc34)[C@H]21` the IC50 at 72 h was 0.08 µM.

Test system: Gemcitabine-resistant PANC-1
Assay: Cytotoxicity against human Gemcitabine-resistant PANC-1 cells assessed as inhibition of cell growth incubated for 72 hrs by SRB assay
Type: functional, cell-based
Conditions: Gemcitabine-resistant PANC-1, 72 h
With `Cn1cc(C2=C(c3cn(C4CCN(Cc5ccccn5)CC4)c4ccccc34)C(=O)NC2=O)c2ccccc21` [ENZASTAURIN] the IC50 was 2.12 µM.
For `CN1c2ccccc2C(=O)N2CCc3c([nH]c4ccc(OC(=O)c5ccccc5)cc34)[C@H]21`, the IC50 was 0.13 µM.
`CN1c2ccccc2C(=O)N2CCc3c([nH]c4ccc(O)cc34)[C@H]21` showed an IC50 of 0.25 µM.
For `Nc1ccn([C@@H]2O[C@H](CO)[C@@H](O)C2(F)F)c(=O)n1` [GEMCITABINE], the IC50 was 64.5 µM.
`CN1c2ccccc2C(=O)N2CCc3c([nH]c4c([N+](=O)[O-])cc([N+](=O)[O-])cc34)[C@H]21` showed an IC50 of 1.31 µM.

Test system: not listed separately
Assay: Selectivity ratio of IC50 for cytotoxicity against human Gemcitabine-resistant PANC-1 cells assessed as inhibition of cell growth to IC50 for cytotoxicity against human PANC-1 cells assessed as inhibition of cell growth
Type: functional
Conditions: not given
For `Nc1ccn([C@@H]2O[C@H](CO)[C@@H](O)C2(F)F)c(=O)n1` [GEMCITABINE], the “Ratio IC50” value was 51.61.

Target: T1, Protein kinase C beta type (Homo sapiens, UniProt P05771)
Assay: Inhibition of recombinant full length N-terminal GST-tagged human PKCbeta1 expressed in baculovirus infected Sf9 insect cells using ERMRPRKRQGSVRRRV as substrate incubated for 60 mins in presence of ATP by ADP-glo reagent based luminometric analysis
Conditions: not given
For `CN1c2ccccc2C(=O)N2CCc3c([nH]c4ccc(OC(=O)c5ccccc5)cc34)[C@H]21`, the inhibition was “inactive”.
With `CN1c2ccccc2C(=O)N2CCc3c([nH]c4ccc(O)cc34)[C@H]21` the inhibition was “inactive”.
With `CN1c2ccccc2C(=O)N2CCc3c([nH]c4c([N+](=O)[O-])cc([N+](=O)[O-])cc34)[C@H]21` the inhibition was “inactive”.
With `CN1c2ccccc2C(=O)N2CCc3c([nH]c4ccccc34)[C@H]21` the IC50 was 0.151 µM.

Test system: PANC-1
Assay: Antiproliferative activity against human PANC-1 cells transfected with Myc-DDK tagged pCMV6-PKCbeta1 assessed as reduction in cell viability at 1.25 to 40 uM incubated for 72 hrs by MTT assay
Type: functional, cell-based
Conditions: dose 1.25-40 µM
For `Nc1ccn([C@@H]2O[C@H](CO)[C@@H](O)C2(F)F)c(=O)n1` [GEMCITABINE], the Activity was “inactive”.

Test system: PANC-1
Assay: Antiproliferative activity against human PANC-1 cells transfected with PKCbeta1 siRNA assessed as reduction in cell viability at 1.25 to 40 uM incubated for 72 hrs by MTT assay
Type: functional, cell-based
Conditions: dose 1.25-40 µM
With `Nc1ccn([C@@H]2O[C@H](CO)[C@@H](O)C2(F)F)c(=O)n1` [GEMCITABINE] the Activity was “Active”.

Test system: Gemcitabine-resistant PANC-1
Assay: Antitumor activity against human Gemcitabine-resistant PANC-1 cells xenografted in male BALB/c nude mouse assessed as reduction in tumor growth at 10 mg/kg, ip administered three times in a week for 20 days relative to control
Type: functional
Set-up: scale not given: the % may be the effect or the level left
Conditions: time 20 day
In the case of `Nc1ccn([C@@H]2O[C@H](CO)[C@@H](O)C2(F)F)c(=O)n1` [GEMCITABINE], the Activity is reported as 72.15%.

Test system: Gemcitabine-resistant PANC-1
Assay: Antitumor activity against human Gemcitabine-resistant PANC-1 cells xenografted in male BALB/c nude mouse assessed as reduction in tumor growth at 5 mg/kg, ip administered three times in a week for 20 days
Type: functional, organism-based
Conditions: time 20.0 day
With `Nc1ccn([C@@H]2O[C@H](CO)[C@@H](O)C2(F)F)c(=O)n1` [GEMCITABINE] the Activity was “inactive”.

Target: T1, Protein kinase C beta type
Assay: Binding affinity to PKCbeta1 in human Gemcitabine-resistant PANC-1 cells at 10 uM incubated for 1 hrs by streptavidin-biotin pull down assay
Type: cell-based
Conditions: not given
Target sequence in this assay (P05771 2-671 limits assumed): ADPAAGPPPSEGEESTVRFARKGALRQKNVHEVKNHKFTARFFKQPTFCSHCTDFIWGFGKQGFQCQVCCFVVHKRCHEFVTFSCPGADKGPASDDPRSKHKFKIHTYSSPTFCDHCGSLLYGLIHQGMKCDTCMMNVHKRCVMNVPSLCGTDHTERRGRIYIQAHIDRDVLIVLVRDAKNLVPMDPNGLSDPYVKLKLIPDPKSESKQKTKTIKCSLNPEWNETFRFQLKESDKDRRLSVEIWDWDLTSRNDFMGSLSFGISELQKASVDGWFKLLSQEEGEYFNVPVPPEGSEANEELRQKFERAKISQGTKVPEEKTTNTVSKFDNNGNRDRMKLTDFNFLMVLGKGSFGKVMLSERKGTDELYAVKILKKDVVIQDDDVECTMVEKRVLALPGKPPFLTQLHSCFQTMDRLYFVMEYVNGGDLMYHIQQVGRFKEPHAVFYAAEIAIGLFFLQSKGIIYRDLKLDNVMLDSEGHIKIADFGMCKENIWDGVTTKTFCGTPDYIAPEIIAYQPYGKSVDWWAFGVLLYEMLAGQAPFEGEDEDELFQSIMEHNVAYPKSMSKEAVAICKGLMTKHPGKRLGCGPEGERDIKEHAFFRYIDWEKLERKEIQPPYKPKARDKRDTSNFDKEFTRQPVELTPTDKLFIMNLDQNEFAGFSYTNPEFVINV
For `CC(=O)Oc1ccc2c(c1)c1c(n2Cc2cn(CCNC(=O)CCCC[C@@H]3SC[C@@H]4NC(=O)N[C@@H]43)nn2)C2N(CC1)C(=O)c1ccccc1N2C` (stereo not given in full), the Activity was “Active”.
